Consider three compounds from patent EP0506704B1, “USE OF ALKYL PHOSPHOLIPIDS AS ANTIVIRAL DRUGS, AS WELL AS NEW COMPOUNDS” (BOEHRINGER MANNHEIM GMBH, priority 1989, dated 1991).

This assay deals with HIV. The experiment in a line: Anti-HIV activity in cell culture: inhibition of HIV replication, virus in supernatant quantified by reinfection of human fetal lung cells. The class given is cell-based. The following applies: Human immunodeficiency virus 1; chronically HIV-infected human fetal lung cells; concentration causing 50 % inhibition of virus replication. From the text:
Die Verbindungen der vorliegenden Erfindung weisen eine antivirale Wirksamkeit auf und können somit beispielsweise zur Behandlung von HIV-bedingten Krankheiten oder Infektionen eingesetzt werden. Der Nachweis der Anti-HIV-Wirksamkeit erfolgt in Zell- oder Gewebekulturen, wobei die direkte Hemmung der HIV-Replikation gemessen wird.
Zunächst erfolgt eine Behandlung von HIV-infizierten humanen T-Lymphomzellen bzw. HIV-infizierten humanen fetalen Lungenzellen mit der zu untersuchenden Verbindung in Verdünnungsreihe. Anschließend erfolgt eine Quantifizierung der Virusmenge im Überstand durch Neuinfektion von humanen fetalen Lungenzellen. Die Abnahme der entstandenen HIV-positiven Zellkolonien gilt als direktes Maß für die antivirale Wirksamkeit der untersuchten Verbindung.
In der folgenden Tabelle sind diejenigen Konzentrationen angegeben, die eine 50 %-ige Hemmung der Virusreplikation bewirken (IC₅₀-Werte).

The structures appear in SMILES notation. Values after ≈ are worked out from the molar mass of the structure shown.

Consider `CCCCCCCCCCCCSC(CCCCCCCCCCCC)COP(=O)([O-])OCC[N+](C)(C)C` (stereo not drawn) [Beispiel 1, 2-Dodecylmercapto-tetradecyl-1-phosphorsäure-monocholinester], for which the midpoint of inhibition, the IC50, lay at 30 µg/mL (≈ 51.7 µM).
As for `CCCCCCCCCCCCOC(CCCCCCCCCCCC)COP(=O)([O-])OCC[N+](C)(C)C` (stereo not drawn) [Beispiel 2, 2-Dodecyloxytetradecvl-1-phosphorsäure-monocholinester], the IC50 (usually the concentration needed to halve the response being measured) amounted to 1 µg/mL (≈ 1.77 µM).
In the case of `CCCCCCCCCCCCSCC(CCCCCCCCCCC)COP(=O)([O-])OCC[N+](C)(C)C` (stereo not drawn) [Beispiel 3, 2-Dodecylmercaptomethyl-tridecyl-1-phosphorsäure-monocholinester], the IC50 worked out at 12 µg/mL (≈ 20.7 µM).
